Test results published in ChEMBL document CHEMBL3132791, “Improved synthesis of 4-/6-substituted 2-carboxy-1H-indole-3-propionic acid derivatives and structureactivity relationships as GPR17 agonists” (Medchemcomm, 2014).
The source made the active and inactive calls. The calls are words filed in the database; no cut-off is given here.

molecular target: T1, Uracil nucleotide/cysteinyl leukotriene receptor (Homo sapiens, UniProt Q13304); assay: Agonist activity at human GPR17 receptor transfected in 1321N1 astrocytoma cells assessed as induction of intracellular calcium mobilization by fluorimetric assay; type: functional, cell-based
T1 sequence (Q13304 whole entry): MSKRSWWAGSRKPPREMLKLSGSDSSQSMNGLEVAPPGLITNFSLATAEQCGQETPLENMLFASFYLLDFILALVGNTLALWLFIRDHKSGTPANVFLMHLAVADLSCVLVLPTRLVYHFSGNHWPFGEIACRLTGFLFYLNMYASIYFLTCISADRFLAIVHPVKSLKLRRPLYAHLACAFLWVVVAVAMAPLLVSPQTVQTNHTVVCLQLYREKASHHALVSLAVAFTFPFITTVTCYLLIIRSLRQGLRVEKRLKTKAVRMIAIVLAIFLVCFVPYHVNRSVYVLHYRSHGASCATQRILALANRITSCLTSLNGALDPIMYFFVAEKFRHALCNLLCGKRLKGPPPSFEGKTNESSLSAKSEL

SMILES | EC50 [µM]
COc1cc(OC)c2c(CCC(=O)O)c(C(=O)O)[nH]c2c1 | > 100
O=C(O)CCc1c(C(=O)O)[nH]c2cccc(Br)c12 | 45.5
O=C(O)CCc1c(C(=O)O)[nH]c2cc(Cl)c(F)c(Cl)c12 | 52

Now those with a lower EC50, led by results:

EC50 [µM] | SMILES
36.8 | O=C(O)CCc1c(C(=O)O)[nH]c2cccc(I)c12
17.1 | O=C(O)CCc1c(C(=O)O)[nH]c2cc(C(F)(F)F)cc(C(F)(F)F)c12
2.24 | O=C(O)CCc1c(C(=O)O)[nH]c2cc(Br)ccc12
0.331 | O=C(O)CCc1c(C(=O)O)[nH]c2cc(Cl)cc(Cl)c12
0.202 | O=C(O)CCc1c(C(=O)O)[nH]c2cc(Br)cc(Br)c12

molecular target: T1, Uracil nucleotide/cysteinyl leukotriene receptor; assay: Antagonist activity at human GPR17 receptor transfected in 1321N1 astrocytoma cells assessed as intracellular calcium mobilization by flurometric assay; type: functional, cell-based

Activity | SMILES
inactive | COc1cc(OC)c2c(CCC(=O)O)c(C(=O)O)[nH]c2c1
